In patent US20240279236A1, “COMPOUNDS AND METHODS OF TREATING TUBERCULOSIS” (Fimbrion Therapeutics, Inc., priority 2021, published 2024) one finds IC50 data, which are given here for 39 compounds.

The test system of this experiment is WT Mtb Erdman strain. Put plainly: Microplate Alamar Blue Assay (MABA), Mtb growth inhibition. The class given is cell-based, Mycobacterium tuberculosis. Conditions: Mycobacterium tuberculosis, ERDMAN, 168 h, Middlebrook 7H9 media, 7 days at 37° C. in 5% CO2.

In general, IC50 refers to the concentration at which inhibition is half-maximal. Higher therefore signals a need for much substance.

With `Cc1cc2c(NCCCc3ccc(Br)cc3F)nc(-c3ccoc3)nc2s1` [Example 211, N-(3-(4-bromo-2-fluorophenyl)propyl)-2-(furan-3-yl)-6-methylthieno[2,3-d]pyrimidin-4-amine], half-maximal inhibition (IC50) required 0.12 µM.
Turning to `Clc1nc(NCCCc2ccccc2)c2ccsc2n1` [Example 218, 2-chloro-N-(3-phenylpropyl)thieno [2,3-d]pyrimidin-4-amine], half-maximal inhibition (IC50) was put at 6.4 µM.
`COc1ccc(CCCNc2nc(Cl)nc3sccc23)cc1` [Example 219, 2-chloro-N-(3-(4-methoxyphenyl)propyl)thieno[2,3-d]pyrimidin-4-amine] returned an IC50 of more than 7.7 µM.
With `Fc1ccc([C@@H]2C[C@H]2Nc2nc(Cl)nc3sccc23)cc1F` [Example 220, 2-chloro-N-((1R,2S)-2-(3,4-difluorophenyl)cyclopropyl)thieno[2,3-d]pyrimidin-4-amine], the IC50 is more than 7.2 µM.
The figure for `Fc1ccc([C@@H]2C[C@H]2Nc2nc(Cl)nc3scnc23)cc1F` [Example 221, 5-chloro-N-((1R,2S)-2-(3,4-difluorophenyl)cyclopropyl)thiazolo [5,4-d]pyrimidin-7-amine] is more than 10 µM; for `Cc1cc2c(N[C@@H]3C[C@H]3c3ccc(F)c(F)c3)nc(Cl)nc2s1` [Example 222, 2-chloro-N-((1R,2S)-2-(3,4-difluorophenyl)cyclopropyl)-6-methylthieno[2,3-d]pyrimidin-4-amine] it is 1.5 µM; for `Cc1cc2c(NCCCc3ccc(OC(F)(F)F)cc3)nc(Cl)nc2s1` [Example 223, 2-chloro-6-methyl-N-(3-(4-(trifluoromethoxy)phenyl)propyl) thieno[2,3-d] pyrimidin-4-amine] it is 1.7 µM.
Then `Cc1cc2c(NCCCc3ccccc3)nc(Cl)nc2s1` [Example 224, 2-chloro-6-methyl-N-(3-phenylpropyl)thieno [2,3-d]pyrimidin-4-amine], with 1.6 µM; and `Cc1cc2c(NC/C=C/c3ccccc3)nc(Cl)nc2s1` [Example 225, 2-chloro-N-cinnamyl-6-methylthieno[2,3-d]pyrimidin-4-amine], with 0.39 µM; and `Cc1cc2c(N[C@@H]3C[C@H]3c3ccc(F)c(F)c3)nc(OCC(F)(F)F)nc2s1` [Example 226, N-((1R,2S)-2-(3,4-difluorophenyl)cyclopropyl)-6-methyl-2-(2,2,2-trifluoroethoxy)thieno [2,3-d]pyrimidin-4-amine], with 1.2 µM.
The figure for `Cc1cc2c(N[C@@H]3C[C@H]3c3ccc(F)c(F)c3)nc(C#N)nc2s1` [Example 227, 4-(((1R,2S)-2-(3,4-difluorophenyl)cyclopropyl)amino)-6-methylthieno[2,3-d]pyrimidine-2-carbonitrile] is 3.3 µM; for `Cc1cccc(CCCNc2nc(C(F)(F)F)nc3sc(C)cc23)c1` [Example 228, 6-methyl-N-(3-(m-tolyl)propyl)-2-(trifluoromethyl)thieno [2,3-d]pyrimidin-4-amine] it is 1.5 µM.
Compound `COC(=O)c1cccc(CCCNc2nc(C(F)(F)F)nc3sc(C)cc23)c1` [Example 229, methyl 3-(3-((6-methyl-2-(trifluoromethyl)thieno [2,3-d]pyrimidin-4-yl)amino)propyl) benzoate] gave a 50% inhibitory concentration (IC50) of 5.9 µM.
Turning to `Cc1cc2c(NCCCc3cc4ccccc4s3)nc(C(F)(F)F)nc2s1` [Example 230, N-(3-(benzo [b]thiophen-2-yl)propyl)-6-methyl-2-(trifluoromethyl) thieno [2,3-d]pyrimidin-4-amine], inhibition was half-maximal at 2.5 µM (IC50).
Then `Cc1cc2c(NCCCc3cccc(F)c3)nc(C(F)(F)F)nc2s1` [Example 231, N-(3-(3-fluorophenyl)propyl)-6-methyl-2-(trifluoromethyl)thieno [2,3-d]pyrimidin-4-amine], with 1.5 µM.
With `Cc1cc2c(NCCCc3ccc4ccccc4c3)nc(C(F)(F)F)nc2s1` [Example 232, 6-methyl-N-(3-(naphthalen-2-yl)propyl)-2-(trifluoromethyl) thieno[2,3-d] pyrimidin-4-amine], the IC50 came to 1.3 µM.
Take `Cc1cc2c(NCCCc3ccc(OC4CC4)cc3)nc(C(F)(F)F)nc2s1` [Example 233, N-(3-(4-cyclopropoxyphenyl)propyl)-6-methyl-2-(trifluoromethyl) thieno[2,3-d] pyrimidin-4-amine]: the concentration for half-maximal inhibition (IC50) is 2.1 µM.
Consider `Cc1cc2c(NCCCc3ccc(C4CCCCC4)cc3)nc(C(F)(F)F)nc2s1` [Example 234, N-(3-(4-cyclohexylphenyl)propyl)-6-methyl-2-(trifluoromethyl) thieno[2,3-d] pyrimidin-4-amine], for which the IC50 came out at 1.8 µM.
Then `Cc1cc2c(NCCCc3ccc(N)cc3)nc(C(F)(F)F)nc2s1` [Example 235, N-(3-(4-aminophenyl)propyl)-6-methyl-2-(trifluoromethyl) thieno[2,3-d]pyrimidin-4-amine], with more than 9.9 µM; and `CCCc1ccc(CCCNc2nc(C(F)(F)F)nc3sc(C)cc23)cc1` [Example 236, 6-methyl-N-(3-(4-propylphenyl)propyl)-2-(trifluoromethyl) thieno [2,3-d]pyrimidin-4-amine], with 1.4 µM; and `Cc1cc2c(NCCCc3ccc(C4CC4)cc3)nc(C(F)(F)F)nc2s1` [Example 237, N-(3-(4-cyclopropylphenyl)propyl)-6-methyl-2-(trifluoromethyl) thieno[2,3-d] pyrimidin-4-amine], with 1.8 µM.
The figure for `Cc1cc2c(NCCCc3ccc(C#N)cc3)nc(C(F)(F)F)nc2s1` [Example 238, 4-(3-((6-methyl-2-(trifluoromethyl)thieno[2,3-d]pyrimidin-4-yl)amino)propyl) benzonitrile] is more than 10 µM; for `Cc1cc2c(NCCCc3cccs3)nc(C(F)(F)F)nc2s1` [Example 239, 6-methyl-N-(3-(thiophen-2-yl)propyl)-2-(trifluoromethyl) thieno[2,3-d] pyrimidin-4-amine] it is more than 6.8 µM; for `Cc1cc2c(NCCCc3cc(F)cc(C(F)(F)F)c3)nc(C(F)(F)F)nc2s1` [Example 240, N-(3-(3-fluoro-5-(trifluoromethyl)phenyl)propyl)-6-methyl-2-(trifluoromethyl) thieno[2,3-d] pyrimidin-4-amine] it is 2.9 µM.
For the compound `COc1cccc(CCCNc2nc(C(F)(F)F)nc3sc(C)cc23)c1` [Example 241, N-(3-(3-methoxyphenyl)propyl)-6-methyl-2-(trifluoromethyl) thieno[2,3-d] pyrimidin-4-amine], half-maximal inhibition (IC50) required 3.1 µM.
The figure for `Cc1cc2c(NCCCc3ccc(S(C)(=O)=O)cc3)nc(C(F)(F)F)nc2s1` [Example 242, 6-methyl-N-(3-(4-(methylsulfonyl)phenyl)propyl)-2-(trifluoromethyl) thieno[2,3-d] pyrimidin-4-amine] is more than 10 µM.
The figure for `Cc1cc2c(NCCCc3cccc(C#N)c3)nc(C(F)(F)F)nc2s1` [Example 243, 3-(3-((6-methyl-2-(trifluoromethyl)thieno[2,3-d]pyrimidin-4-yl)amino)propyl) benzonitrile] is more than 8 µM; for `Cc1ccc(CCCNc2nc(C(F)(F)F)nc3sc(C)cc23)cc1` [Example 244, 6-methyl-N-(3-(p-tolyl)propyl)-2-(trifluoromethyl) thieno[2,3-d] pyrimidin-4-amine] it is 1 µM.
The figure for `Cc1cc2c(NCCCc3ccc(Cl)cc3)nc(C(F)(F)F)nc2s1` [Example 245, N-(3-(4-chlorophenyl)propyl)-6-methyl-2-(trifluoromethyl) thieno[2,3-d] pyrimidin-4-amine] is 1.8 µM; for `COC(=O)c1ccc(CCCNc2nc(C(F)(F)F)nc3sc(C)cc23)cc1` [Example 246, methyl 4-(3-((6-methyl-2-(trifluoromethyl)thieno[2,3-d]pyrimidin-4-yl)amino)propyl) benzoate] it is more than 10 µM; for `Cc1cc2c(NCCCc3ccccc3C)nc(C(F)(F)F)nc2s1` [Example 247, 6-methyl-N-(3-(o-tolyl)propyl)-2-(trifluoromethyl) thieno[2,3-d] pyrimidin-4-amine] it is 1.4 µM.
`Cc1cc2c(NCCCc3cccc(Cl)c3)nc(C(F)(F)F)nc2s1` [Example 248, N-(3-(3-chlorophenyl)propyl)-6-methyl-2-(trifluoromethyl) thieno[2,3-d] pyrimidin-4-amine] returned a half-inhibitory concentration (IC50) of 1.8 µM.
The compound `Cc1cc2c(NCCCc3ccccc3Cl)nc(C(F)(F)F)nc2s1` [Example 249, N-(3-(2-chlorophenyl)propyl)-6-methyl-2-(trifluoromethyl)thieno [2,3-d]pyrimidin-4-amine] registered a half-inhibitory concentration (IC50) of 4 µM.
`CCc1nc(NCCCc2ccc(N(C)C)cc2)c2cc(C)sc2n1` [Example 250, N-(3-(4-(dimethylamino)phenyl)propyl)-2-ethyl-6-methylthieno [2,3-d]pyrimidin-4-amine] gave an IC50 of 0.2 µM.
Then `CCc1nc(NCCCc2ccc(C)cc2)c2cc(C)sc2n1` [Example 251, 2-ethyl-6-methyl-N-(3-(p-tolyl)propyl)thieno [2,3-d]pyrimidin-4-amine], with 0.1 µM.
The figure for `CCc1nc(NCCCc2ccc(OC(F)(F)F)c(F)c2)c2cc(C)sc2n1` [Example 252, 2-ethyl-N-(3-(3-fluoro-4-(trifluoromethoxy)phenyl)propyl)-6-methylthieno[2,3-d]pyrimidin-4-amine] is 0.6 µM; for `CCc1nc(NCCCc2cccc(N(C)C)c2)c2cc(C)sc2n1` [Example 253, N-(3-(3-(dimethylamino)phenyl)propyl)-2-ethyl-6-methylthieno[2,3-d]pyrimidin-4-amine] it is 1.1 µM; for `CCc1nc(NCCCc2ccc3ncccc3c2)c2cc(C)sc2n1` [Example 254, 2-ethyl-6-methyl-N-(3-(quinolin-6-yl)propyl)thieno[2,3-d]pyrimidin-4-amine] it is 1.5 µM.
The figure for `CCc1nc(NCCCc2cccc(OC(F)(F)F)c2)c2cc(C)sc2n1` [Example 255, 2-ethyl-6-methyl-N-(3-(3-(trifluoromethoxy)phenyl)propyl)thieno [2,3-d]pyrimidin-4-amine] is 0.57 µM.
